# Experimental data: the kinase profiling compilation of Christmann-Franck et al. (2016)
# Legend:
# Assay in all cases: KINOMEscan competition binding
# Details in all cases: compound 10.0 µM
# [1] = tested on: BMX (human), P51813 [V600E]
# [2] = tested on: EGFR (human), P00533 [A750P; 747-749 del]
# [3] = tested on: EGFR (human), P00533 [G719C]
# [4] = tested on: EGFR (human), P00533 [L858R]
# [5] = tested on: FGFR3 (human), P22607 [G697C]
# [6] = tested on: FLT3 (human), P36888 [D835Y]
# [7] = tested on: KIT (human), P10721 [A829P]
# Chain of KIT (human), P10721 [A829P] (P10721 whole entry A829P, looked up): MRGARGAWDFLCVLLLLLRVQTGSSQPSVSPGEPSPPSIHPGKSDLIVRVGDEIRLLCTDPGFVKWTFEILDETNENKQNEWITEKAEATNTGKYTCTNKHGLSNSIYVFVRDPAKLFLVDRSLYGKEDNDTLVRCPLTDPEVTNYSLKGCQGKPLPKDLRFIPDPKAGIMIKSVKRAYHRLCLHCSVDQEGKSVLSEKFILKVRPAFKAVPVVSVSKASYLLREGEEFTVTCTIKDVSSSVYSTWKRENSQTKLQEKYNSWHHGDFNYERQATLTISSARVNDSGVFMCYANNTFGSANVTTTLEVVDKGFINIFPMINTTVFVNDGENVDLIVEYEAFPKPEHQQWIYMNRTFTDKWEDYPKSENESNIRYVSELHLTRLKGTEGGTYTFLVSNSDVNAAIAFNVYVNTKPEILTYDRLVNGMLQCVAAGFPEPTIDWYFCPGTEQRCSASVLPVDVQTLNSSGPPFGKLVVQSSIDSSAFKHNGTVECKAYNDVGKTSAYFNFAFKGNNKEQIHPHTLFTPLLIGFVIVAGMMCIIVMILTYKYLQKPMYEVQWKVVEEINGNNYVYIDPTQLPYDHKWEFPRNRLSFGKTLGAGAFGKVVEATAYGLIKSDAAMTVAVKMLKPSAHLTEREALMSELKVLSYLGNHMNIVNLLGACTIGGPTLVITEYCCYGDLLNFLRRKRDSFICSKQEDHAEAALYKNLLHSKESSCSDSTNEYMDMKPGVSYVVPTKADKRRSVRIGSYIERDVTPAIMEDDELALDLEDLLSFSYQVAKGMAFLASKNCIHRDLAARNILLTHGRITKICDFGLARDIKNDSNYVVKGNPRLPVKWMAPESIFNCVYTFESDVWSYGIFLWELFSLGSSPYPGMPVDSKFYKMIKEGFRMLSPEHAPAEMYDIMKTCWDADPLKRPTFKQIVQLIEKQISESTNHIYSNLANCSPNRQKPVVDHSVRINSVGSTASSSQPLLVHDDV
# [8] = tested on: KIT (human), P10721 [D816H]
# Chain of KIT (human), P10721 [D816H] (P10721 whole entry D816H, looked up): as the sequence (P10721 whole entry A829P, looked up) above, with D816H, P829A counted along it
# [9] = tested on: LRRK2 (human), Q5S007 [G2019S]
# [10] = tested on: MET (human), P08581 [M1250T]
# [11] = tested on: PIK3CA (human), P42336 [E542K]
# Chain of PIK3CA (human), P42336 [E542K] (P42336 whole entry E542K, looked up): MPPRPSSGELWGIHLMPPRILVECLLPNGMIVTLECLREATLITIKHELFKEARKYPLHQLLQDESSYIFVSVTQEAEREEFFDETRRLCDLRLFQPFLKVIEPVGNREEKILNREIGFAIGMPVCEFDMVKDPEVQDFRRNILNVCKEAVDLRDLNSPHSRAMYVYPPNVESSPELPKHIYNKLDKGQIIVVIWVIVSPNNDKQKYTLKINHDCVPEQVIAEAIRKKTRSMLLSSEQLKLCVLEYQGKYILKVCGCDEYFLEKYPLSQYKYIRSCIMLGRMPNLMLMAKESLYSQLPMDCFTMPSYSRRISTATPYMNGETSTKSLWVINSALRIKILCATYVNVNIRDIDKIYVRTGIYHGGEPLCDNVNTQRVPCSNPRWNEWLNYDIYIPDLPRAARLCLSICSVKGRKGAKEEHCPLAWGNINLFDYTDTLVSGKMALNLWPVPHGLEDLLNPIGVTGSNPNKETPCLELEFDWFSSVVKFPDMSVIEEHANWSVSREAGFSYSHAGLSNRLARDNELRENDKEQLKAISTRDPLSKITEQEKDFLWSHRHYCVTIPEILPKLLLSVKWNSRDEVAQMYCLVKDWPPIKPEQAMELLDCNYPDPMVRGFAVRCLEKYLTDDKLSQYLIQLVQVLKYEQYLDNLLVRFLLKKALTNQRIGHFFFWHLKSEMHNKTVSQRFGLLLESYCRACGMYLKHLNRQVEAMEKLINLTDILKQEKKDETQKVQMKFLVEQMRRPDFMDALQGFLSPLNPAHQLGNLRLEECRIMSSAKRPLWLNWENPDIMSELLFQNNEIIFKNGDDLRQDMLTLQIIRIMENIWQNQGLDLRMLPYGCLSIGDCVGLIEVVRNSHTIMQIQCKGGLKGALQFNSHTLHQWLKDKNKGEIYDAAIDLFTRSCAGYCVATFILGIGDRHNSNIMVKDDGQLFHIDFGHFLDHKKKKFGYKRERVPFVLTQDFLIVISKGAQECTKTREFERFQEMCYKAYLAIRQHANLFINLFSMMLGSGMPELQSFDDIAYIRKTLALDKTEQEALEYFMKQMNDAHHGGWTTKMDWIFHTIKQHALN
# [12] = tested on: PIK3CA (human), P42336 [H1047L]
# Chain of PIK3CA (human), P42336 [H1047L] (P42336 whole entry H1047L, looked up): as the sequence (P42336 whole entry E542K, looked up) above, with K542E, H1047L counted along it
# [13] = tested on: PIK3CA (human), P42336 [M1043I]
# Chain of PIK3CA (human), P42336 [M1043I] (P42336 whole entry M1043I, looked up): as the sequence (P42336 whole entry E542K, looked up) above, with K542E, M1043I counted along it
# [14] = tested on: RET (human), P07949 [V804L]
# Chain of RET (human), P07949 [V804L] (P07949 whole entry V804L, looked up): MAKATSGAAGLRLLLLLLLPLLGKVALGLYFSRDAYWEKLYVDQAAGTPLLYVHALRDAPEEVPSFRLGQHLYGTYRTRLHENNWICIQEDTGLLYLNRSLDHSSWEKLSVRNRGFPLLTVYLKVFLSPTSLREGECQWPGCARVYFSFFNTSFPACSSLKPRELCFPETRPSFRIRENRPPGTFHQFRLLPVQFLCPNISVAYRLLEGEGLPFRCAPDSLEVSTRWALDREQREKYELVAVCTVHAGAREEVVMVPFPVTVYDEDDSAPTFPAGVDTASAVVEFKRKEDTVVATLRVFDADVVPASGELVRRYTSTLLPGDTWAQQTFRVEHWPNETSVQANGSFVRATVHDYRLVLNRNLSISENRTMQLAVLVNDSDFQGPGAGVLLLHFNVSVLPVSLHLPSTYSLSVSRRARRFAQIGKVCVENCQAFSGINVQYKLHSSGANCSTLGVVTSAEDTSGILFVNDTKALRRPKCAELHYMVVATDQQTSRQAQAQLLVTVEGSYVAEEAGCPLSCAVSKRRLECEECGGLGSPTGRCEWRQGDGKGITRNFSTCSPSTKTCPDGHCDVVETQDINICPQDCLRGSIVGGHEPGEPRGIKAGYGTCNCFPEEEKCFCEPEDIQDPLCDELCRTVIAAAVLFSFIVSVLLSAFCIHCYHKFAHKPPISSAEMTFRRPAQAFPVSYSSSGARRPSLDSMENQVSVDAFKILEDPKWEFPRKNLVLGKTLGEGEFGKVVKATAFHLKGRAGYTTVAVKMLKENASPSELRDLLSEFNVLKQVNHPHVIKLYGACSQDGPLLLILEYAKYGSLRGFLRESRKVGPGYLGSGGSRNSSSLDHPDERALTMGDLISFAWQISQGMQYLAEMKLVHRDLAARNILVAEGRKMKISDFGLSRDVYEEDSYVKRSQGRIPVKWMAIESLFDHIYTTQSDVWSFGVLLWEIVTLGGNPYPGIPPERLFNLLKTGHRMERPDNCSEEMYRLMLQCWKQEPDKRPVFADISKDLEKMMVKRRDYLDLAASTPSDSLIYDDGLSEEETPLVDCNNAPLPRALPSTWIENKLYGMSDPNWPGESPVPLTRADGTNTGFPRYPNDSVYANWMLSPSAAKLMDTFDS
# Chain of FGFR3 (human), P22607 [G697C] (P22607 whole entry G697C, looked up): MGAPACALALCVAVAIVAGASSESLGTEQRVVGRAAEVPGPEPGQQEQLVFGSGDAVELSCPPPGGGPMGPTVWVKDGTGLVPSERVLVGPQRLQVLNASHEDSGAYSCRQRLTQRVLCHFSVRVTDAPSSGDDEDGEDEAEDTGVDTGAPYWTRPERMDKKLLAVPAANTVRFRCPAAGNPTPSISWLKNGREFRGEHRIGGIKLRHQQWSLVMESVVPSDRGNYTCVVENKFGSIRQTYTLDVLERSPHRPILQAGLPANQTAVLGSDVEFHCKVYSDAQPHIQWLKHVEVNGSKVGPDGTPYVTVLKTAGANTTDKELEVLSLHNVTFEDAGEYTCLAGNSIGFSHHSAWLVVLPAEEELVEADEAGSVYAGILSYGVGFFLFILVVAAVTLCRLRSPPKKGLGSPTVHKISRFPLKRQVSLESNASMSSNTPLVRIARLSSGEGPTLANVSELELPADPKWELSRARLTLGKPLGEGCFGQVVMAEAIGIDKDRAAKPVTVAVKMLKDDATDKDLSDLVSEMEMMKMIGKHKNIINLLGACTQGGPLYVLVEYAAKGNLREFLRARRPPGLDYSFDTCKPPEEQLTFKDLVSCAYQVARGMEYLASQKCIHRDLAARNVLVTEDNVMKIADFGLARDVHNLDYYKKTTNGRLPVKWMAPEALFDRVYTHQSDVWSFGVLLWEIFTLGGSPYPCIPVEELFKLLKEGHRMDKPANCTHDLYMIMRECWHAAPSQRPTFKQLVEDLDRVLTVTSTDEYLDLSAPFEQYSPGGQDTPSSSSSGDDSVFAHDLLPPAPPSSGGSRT
# Chain of BMX (human), P51813 [V600E] (P51813 whole entry, looked up, stated change not applied): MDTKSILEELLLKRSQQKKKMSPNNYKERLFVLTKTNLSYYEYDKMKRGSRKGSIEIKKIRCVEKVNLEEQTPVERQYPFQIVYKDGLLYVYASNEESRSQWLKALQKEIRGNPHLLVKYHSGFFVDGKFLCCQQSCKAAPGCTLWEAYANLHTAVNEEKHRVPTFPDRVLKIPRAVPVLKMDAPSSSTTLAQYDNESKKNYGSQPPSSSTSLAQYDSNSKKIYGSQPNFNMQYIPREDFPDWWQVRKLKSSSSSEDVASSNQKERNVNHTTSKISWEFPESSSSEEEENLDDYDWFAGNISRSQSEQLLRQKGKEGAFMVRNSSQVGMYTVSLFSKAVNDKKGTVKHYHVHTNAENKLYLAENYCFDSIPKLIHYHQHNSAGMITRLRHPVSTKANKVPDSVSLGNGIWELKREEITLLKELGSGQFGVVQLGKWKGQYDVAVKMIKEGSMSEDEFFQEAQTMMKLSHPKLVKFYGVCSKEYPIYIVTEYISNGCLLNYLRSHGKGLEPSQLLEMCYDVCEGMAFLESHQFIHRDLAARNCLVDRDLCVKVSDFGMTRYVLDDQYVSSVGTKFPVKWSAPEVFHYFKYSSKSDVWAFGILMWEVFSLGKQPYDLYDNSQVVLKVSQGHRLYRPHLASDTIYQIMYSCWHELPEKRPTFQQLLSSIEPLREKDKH
Structure (SMILES),"kinase still bound, per cent of control [1]","kinase still bound, per cent of control [2]","kinase still bound, per cent of control [3]","kinase still bound, per cent of control [4]","kinase still bound, per cent of control [5]","kinase still bound, per cent of control [6]","kinase still bound, per cent of control [7]","kinase still bound, per cent of control [8]","kinase still bound, per cent of control [9]","kinase still bound, per cent of control [10]","kinase still bound, per cent of control [11]","kinase still bound, per cent of control [12]","kinase still bound, per cent of control [13]","kinase still bound, per cent of control [14]"
C=CC(=O)Nc1cc(-n2c(=O)ccc3cnc4ccc(-c5cn[nH]c5)cc4c32)ccc1C,91%,26%,100%,41%,74%,1.2%,36%,14%,6.4%,80%,20%,4.6%,15%,79%
CCCS(=O)(=O)Nc1ccc(F)c(C(=O)c2c[nH]c3ncc(-c4ccc(Cl)cc4)cc23)c1F,0.2%,74%,28%,,100%,,89%,98%,70%,25%,100%,95%,,90%
C=CC(=O)Nc1cccc(Nc2nc(N[C@H]3CC[C@H](N(C)C)CC3)nc3c2ncn3C(C)C)c1,85%,76%,79%,99%,99%,0.85%,23%,27%,45%,100%,100%,100%,100%,80%
COCC(=O)NC/C=C/c1ccc2ncnc(Nc3ccc(Oc4ccc(C)nc4)c(C)c3)c2c1,80%,,,,90%,,,100%,98%,100%,100%,100%,100%,100%
C[C@@H](Oc1cc(-c2cnn(C3CCNCC3)c2)cnc1N)c1c(Cl)ccc(F)c1Cl,,,,,27%,11%,35%,50%,57%,,100%,48%,,
COc1ccc(N(C(=O)Oc2c(C)cccc2C)c2ccnc(Nc3ccc(N4CCN(C)CC4)cc3)n2)c(OC)c1,38%,1%,0.25%,0%,2.6%,5.2%,56%,44%,84%,5.4%,100%,100%,99%,85%
CCN1CCN(Cc2ccc(Nc3ncc4c(n3)N(C)c3ccccc3C(=O)N4C)cc2C(F)(F)F)CC1,100%,79%,89%,76%,31%,3.5%,59%,65%,18%,71%,24%,1.8%,15%,0.9%
Nc1ccc(-c2ccc3ncc4ccc(=O)n(-c5cccc(C(F)(F)F)c5)c4c3c2)cn1,95%,100%,71%,100%,89%,32%,64%,80%,81%,100%,,0%,,100%
NC(=O)Nc1cc(-c2cccc(F)c2)sc1C(=O)N[C@@H]1CCCNC1,89%,0.65%,0.05%,2.2%,22%,0.1%,,,4.2%,4.7%,100%,100%,100%,0%
O=C(O)c1ccc(Nc2ncc3c(n2)-c2ccc(Cl)cc2C(c2c(F)cccc2F)=NC3)cc1,,28%,77%,29%,12%,72%,100%,,100%,58%,,79%,,88%
Cc1cc([C@@H](C)Nc2ccccc2C(=O)O)c2nc(N3CCOCC3)cc(=O)n2c1,92%,100%,95%,100%,100%,54%,100%,88%,100%,87%,,,,99%
Cc1ccc2nc(NCCN)c3ncc(C)n3c2c1,60%,100%,,,100%,97%,,100%,,100%,100%,100%,100%,100%
CNC(=O)c1cc(Oc2ccc(NC(=O)Nc3ccc(Cl)c(C(F)(F)F)c3)cc2)ccn1,0.05%,,,,39%,3.2%,59%,36%,,83%,,,,0.1%
O=C(Nc1cccc(Nc2ncc(Br)c(NCCc3cnc[nH]3)n2)c1)N1CCCC1,62%,41%,24%,65%,0.8%,0.1%,28%,11%,8.4%,4.6%,100%,59%,95%,0.15%
N#Cc1c(NC(=O)c2cccc3ccccc23)sc2c1CCCC2,93%,,,,83%,80%,87%,85%,94%,100%,100%,70%,100%,90%
CCN(CC)CCCCNc1ncc2cc(-c3cc(OC)cc(OC)c3)c(NC(=O)NC(C)(C)C)nc2n1,100%,,,,3.7%,100%,,,,,,,,
O=C(NOC[C@H](O)CO)c1ccc(F)c(F)c1Nc1ccc(I)cc1F,100%,,86%,79%,88%,100%,,91%,100%,92%,57%,45%,42%,93%
